Usually IC50 stands for the midpoint of a concentration-inhibition curve. A low value points to inhibition by little substance.

The structures appear in SMILES notation. Some results are limits rather than exact numbers.

The target of test [1] is Untagged CRBN-DDB1 complex (Homo sapiens (Human), UniProt Q96SW2). As to the kind of experiment: Fluorescence polarization (FP) assay, displacement of Cy5-labeled thalidomide. To be noted: Cy5-labeled thalidomide 20 nM, 10 min at room temperature. Format: binding. The procedure:
The final solution contained 50 mM HEPES, 200 mM NaCl and 2 mM DTT, pH 7.5. The mixtures were incubated at room temperature for 10 min. The FP signals were recorded on an EnVision plate reader (Perkin Elmer) using the following settings: Excitation Light (%): 100; Measurement Height: 12; G-Factor: 1; Detector Gain 1: 500; Detector Gain 2: 500; Flash Number: 100. Dose-dependent loss of FP signals was fitted by four-parameter Logistic Function using GraphPad Prism 7.0 and the IC50 values were reported for each compound.
The compound numbers correspond to the compound numbers in the examples.
For orientation: Fluorescence polarisation rises when a labelled molecule tumbles more slowly, as on binding a larger partner.

For the next test, the target named is BRD4 (Homo sapiens (Human), UniProt O60885). As to the kind of experiment: BRD4 degradation in NAMALWA cells, Western Blot. The format is cell-based. The note with it: 2 h. A general note: Immunoblotting shows a protein as a band on a membrane.

Untagged CRBN-DDB1 complex, sequence (Q96SW2 whole entry): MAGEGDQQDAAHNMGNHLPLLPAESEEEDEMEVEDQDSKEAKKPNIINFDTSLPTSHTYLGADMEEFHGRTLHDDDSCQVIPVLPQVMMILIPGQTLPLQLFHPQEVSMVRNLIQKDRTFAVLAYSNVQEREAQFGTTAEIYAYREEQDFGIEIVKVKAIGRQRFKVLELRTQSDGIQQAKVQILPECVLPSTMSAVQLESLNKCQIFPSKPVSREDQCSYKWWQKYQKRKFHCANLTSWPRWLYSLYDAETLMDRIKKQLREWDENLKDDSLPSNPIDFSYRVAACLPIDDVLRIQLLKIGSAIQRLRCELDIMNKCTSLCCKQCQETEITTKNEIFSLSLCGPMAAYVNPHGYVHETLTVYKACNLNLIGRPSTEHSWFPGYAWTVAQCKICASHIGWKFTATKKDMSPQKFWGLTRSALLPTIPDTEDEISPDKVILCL
Untagged CRBN-DDB1 complex, sequence (Q16531 whole entry partner): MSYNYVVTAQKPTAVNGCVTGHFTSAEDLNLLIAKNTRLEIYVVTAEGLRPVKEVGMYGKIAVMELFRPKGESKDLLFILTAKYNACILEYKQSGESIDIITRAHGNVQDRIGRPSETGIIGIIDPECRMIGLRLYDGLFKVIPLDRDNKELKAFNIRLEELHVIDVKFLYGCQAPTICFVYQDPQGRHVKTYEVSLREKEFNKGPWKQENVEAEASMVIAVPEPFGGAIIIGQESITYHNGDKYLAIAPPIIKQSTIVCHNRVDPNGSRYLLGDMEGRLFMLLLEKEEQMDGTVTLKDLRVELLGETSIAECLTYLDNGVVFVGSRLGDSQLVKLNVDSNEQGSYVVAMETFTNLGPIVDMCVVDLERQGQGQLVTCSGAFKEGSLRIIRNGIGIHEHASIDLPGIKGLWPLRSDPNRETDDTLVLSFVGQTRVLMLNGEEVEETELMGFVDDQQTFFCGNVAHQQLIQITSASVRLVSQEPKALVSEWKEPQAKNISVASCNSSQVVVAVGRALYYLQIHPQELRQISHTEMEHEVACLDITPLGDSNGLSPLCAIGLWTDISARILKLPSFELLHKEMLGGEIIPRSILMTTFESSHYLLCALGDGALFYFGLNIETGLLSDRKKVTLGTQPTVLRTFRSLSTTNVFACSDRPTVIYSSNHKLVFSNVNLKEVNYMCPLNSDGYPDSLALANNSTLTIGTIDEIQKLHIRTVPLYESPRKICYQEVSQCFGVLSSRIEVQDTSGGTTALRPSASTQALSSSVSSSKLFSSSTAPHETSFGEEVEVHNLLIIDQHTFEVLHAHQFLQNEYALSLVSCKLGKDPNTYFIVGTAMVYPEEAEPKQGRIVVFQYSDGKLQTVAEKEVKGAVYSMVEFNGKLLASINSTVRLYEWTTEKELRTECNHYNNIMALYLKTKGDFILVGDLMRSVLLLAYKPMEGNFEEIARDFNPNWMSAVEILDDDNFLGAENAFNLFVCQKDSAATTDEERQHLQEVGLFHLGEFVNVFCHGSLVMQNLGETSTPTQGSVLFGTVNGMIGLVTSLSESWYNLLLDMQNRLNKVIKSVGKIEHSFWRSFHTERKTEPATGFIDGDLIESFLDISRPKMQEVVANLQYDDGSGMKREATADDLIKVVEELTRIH

For the molecule `O=C1CCC(N2C(=O)Cc3ccccc32)C(=O)N1` (stereo not drawn) [Compound 3, 3-(2-Oxo-2,3-dihydro-1H-indol-1-yl)piperidine-2,6-dione], the half-inhibitory concentration (IC50) in test [1] is more than 100 µM.
As to `Cc1sc2c(c1C)C(c1ccc(Cl)cc1)=N[C@@H](CC(=O)NCCOCCOCCOCCn1c(=O)n(C3CCC(=O)NC3=O)c3ccccc31)c1nnc(C)n1-2` (stereo partly drawn) [Compound I-37, 2-((S)-4-(4-Chlorophenyl)-2,3,9-trimethyl-6H-thieno[3,2-f][1,2,4]triazolo[4,3-a][1,4]diazepin-6-yl)-N-(2-(2-(2-(2-(3-(2,6-dioxopiperidin-3-yl)-2-oxo-2,3-dihydro-1H-benzo[d]imidazol-1-yl)ethoxy)ethoxy)ethoxy)ethyl)acetamide], the “% BRD4 degradation” value at BRD4 (0.0003 uM) is listed as “B (60 to 80 percent protein degradation)”; at BRD4 (0.001 uM), “B (60 to 80 percent protein degradation)”; on BRD4 (0.003 uM), “A (greater than 80 percent protein degradation)”; at BRD4 (0.01 uM), “A (greater than 80 percent protein degradation)”; on BRD4 (0.03 uM) it was “A (greater than 80 percent protein degradation)”; at BRD4 (0.1 uM), “A (greater than 80 percent protein degradation)”. Moreover, the “% BRD4 degradation” value on BRD4 (0.3 uM) and on BRD4 (1 uM) was “A (greater than 80 percent protein degradation)” each time.
As for `Cc1sc2c(c1C)C(c1ccc(Cl)cc1)=N[C@@H](CC(=O)NCCOCCOCCCc1cccc3c1n(C)c(=O)n3C1CCC(=O)NC1=O)c1nnc(C)n1-2` (stereo partly drawn) [Compound I-36, 2-((S)-4-(4-chlorophenyl)-2,3,9-trimethyl-6H-thieno[3,2-f][1,2,4]triazolo[4,3-a][1,4]diazepin-6-yl)-N-(2-(2-(3-(1-(2,6-dioxopiperidin-3-yl)-3-methyl-2-oxo-2,3-dihydro-1H-benzo[d]imidazol-4-yl)propoxy)ethoxy)ethyl)acetamide], the “% BRD4 degradation” value on BRD4 (0.0003 uM) was “C (40 to 60 percent protein degradation)”; on BRD4 (0.001 uM) it was “C (40 to 60 percent protein degradation)”; on BRD4 (0.003 uM) it was “C (40 to 60 percent protein degradation)”; on BRD4 (0.01 uM), “C (40 to 60 percent protein degradation)”; on BRD4 (0.03 uM), “B (60 to 80 percent protein degradation)”; at BRD4 (0.1 uM), “B (60 to 80 percent protein degradation)”. Further, the “% BRD4 degradation” value on BRD4 (0.3 uM) and on BRD4 (1 uM) was “B (60 to 80 percent protein degradation)” each time.
Consider `Cc1sc2c(c1C)C(c1ccc(Cl)cc1)=N[C@@H](CC(=O)NCCOCCOCCCc1ccc3c(c1)n(C)c(=O)n3C1CCC(=O)NC1=O)c1nnc(C)n1-2` (stereo partly drawn) [Compound I-35, 2-((S)-4-(4-chlorophenyl)-2,3,9-trimethyl-6H-thieno[3,2-f][1,2,4]triazolo[4,3-a][1,4]diazepin-6-yl)-N-(2-(2-(3-(1-(2,6-dioxopiperidin-3-yl)-3-methyl-2-oxo-2,3-dihydro-1H-benzo[d]imidazol-5-yl)propoxy)ethoxy)ethyl)acetamide], for which the “% BRD4 degradation” value is recorded as “B (60 to 80 percent protein degradation)” on BRD4 (0.0003 uM); “A (greater than 80 percent protein degradation)” on BRD4 (0.001 uM); “A (greater than 80 percent protein degradation)” at BRD4 (0.003 uM); “A (greater than 80 percent protein degradation)” at BRD4 (0.01 uM); “A (greater than 80 percent protein degradation)” at BRD4 (0.03 uM); “A (greater than 80 percent protein degradation)” on BRD4 (0.1 uM). Also, the “% BRD4 degradation” value at BRD4 (0.3 uM) and on BRD4 (1 uM) was “A (greater than 80 percent protein degradation)” in each case.
As for `Cc1sc2c(c1C)C(c1ccc(Cl)cc1)=N[C@@H](CC(=O)NCCOCCOCCn1c(=O)n(C3CCC(=O)NC3=O)c3ccccc31)c1nnc(C)n1-2` (stereo partly drawn) [Compound I-38, 2-((S)-4-(4-chlorophenyl)-2,3,9-trimethyl-6H-thieno[3,2-f][1,2,4]triazolo[4,3-a][1,4]diazepin-6-yl)-N-(2-(2-(2-(3-(2,6-dioxopiperidin-3-yl)-2-oxo-2,3-dihydro-1H-benzo[d]imidazol-1-yl)ethoxy)ethoxy)ethyl)acetamide], the “% BRD4 degradation” value on BRD4 (0.0003 uM) was “D (less than 40 percent protein degradation)”; on BRD4 (0.001 uM) it was “B (60 to 80 percent protein degradation)”; at BRD4 (0.003 uM), “A (greater than 80 percent protein degradation)”; on BRD4 (0.01 uM), “A (greater than 80 percent protein degradation)”; at BRD4 (0.03 uM), “A (greater than 80 percent protein degradation)”; at BRD4 (0.1 uM) it was “A (greater than 80 percent protein degradation)”. Moreover, the “% BRD4 degradation” value on BRD4 (0.3 uM) and on BRD4 (1 uM) was “A (greater than 80 percent protein degradation)” in each case.

The record behind these values is patent US11623932B2, “Protein degraders and uses thereof” (Kymera Therapeutics, Inc., priority 2017, dated 2023).
